From ChEMBL document CHEMBL1201862, “PubChem BioAssay data set” (2004)
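Cells were grown in 96-well plates and exposed to each compound for 48 hours at five concentrations; endpoints were interpolated linearly between bracketing concentrations, or set to the highest concentration if not reached. Abbreviation: GI50, concentration required for 50% inhibition of growth.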 Active and inactive are the calls of the source. No stated cut-off is given here; in the data, active = GI50 up to about 1.1 µM and inactive = higher.

What was measured:
Assay in all cases: NCI anticancer screen, dose series, 48 h
SK-MEL-2 = tested on: SK-MEL-2
RPMI-8226 = tested on: RPMI-8226
LOX IMVI = tested on: LOX IMVI
SF-268 = tested on: SF-268
UACC-62 = tested on: UACC-62
OVCAR-3 = tested on: OVCAR-3
PC-3 = tested on: PC-3
A549 = tested on: A549
MCF7 = tested on: MCF7
MDA-MB-231 = tested on: MDA-MB-231
SK-MEL-5 = tested on: SK-MEL-5
U-251 = tested on: U-251
CAKI-1 = tested on: CAKI-1
HCC 2998 = tested on: HCC 2998
T47D = tested on: T47D
NCI-H23 = tested on: NCI-H23
SK-MEL-28 = tested on: SK-MEL-28
COLO 205 = tested on: COLO 205
HCT-15 = tested on: HCT-15

Compound	GI50 (SK-MEL-2)	GI50 (RPMI-8226)	GI50 (LOX IMVI)	GI50 (SF-268)	GI50 (UACC-62)	GI50 (OVCAR-3)	GI50 (PC-3)	GI50 (A549)	GI50 (MCF7)	GI50 (MDA-MB-231)	GI50 (SK-MEL-5)	GI50 (U-251)	GI50 (CAKI-1)	GI50 (HCC 2998)	GI50 (T47D)	GI50 (NCI-H23)	GI50 (SK-MEL-28)	GI50 (COLO 205)	GI50 (HCT-15) [µM]
COc1ccc(-c2c3c(cc4cc5c(cc24)OCO5)C(=O)OC3)cc1OC	1.83 µM (inactive)	0.0447 µM (active)	0.0164 µM (active)	5.85 µM (inactive)	0.507 µM (active)	0.885 µM (active)	4.01 µM (inactive)	1.44 µM (inactive)	4.13 µM (inactive)	3.02 µM (inactive)	0.119 µM (active)	4.67 µM (inactive)	0.571 µM (active)	2.99 µM (inactive)	0.386 µM (active)	6.98 µM (inactive)	1.37 µM (inactive)	0.383 µM (active)	0.635
O=C1/C(=C/c2ccccc2)N=C(c2ccccc2)N1C1Nc2cc3c(cc2S1)NC(N1C(=O)/C(=C/c2ccccc2)N=C1c1ccccc1)S3 (stereo unspecified)	23.6 µM (inactive)	5.4 µM (inactive)	3.74 µM (inactive)	5.61 µM (inactive)	–	37.1 µM (inactive)	11.8 µM (inactive)	–	22.3 µM (inactive)	1.82 µM (inactive)	30.3 µM (inactive)	4.72 µM (inactive)	> 100 µM (inactive)	2.04 µM (inactive)	30.4 µM (inactive)	4.9 µM (inactive)	6.64 µM (inactive)	–	24.2
COc1cc2oc(=O)cc(C)c2cc1O	> 100 µM (inactive)	> 100 µM (inactive)	> 100 µM (inactive)	> 100 µM (inactive)	–	> 100 µM (inactive)	> 100 µM (inactive)	> 100 µM (inactive)	> 100 µM (inactive)	> 100 µM (inactive)	> 100 µM (inactive)	> 100 µM (inactive)	> 100 µM (inactive)	3 µM (inactive)	41 µM (inactive)	> 100 µM (inactive)	> 100 µM (inactive)	> 100 µM (inactive)	> 100
O=C(CN1CCCCC1)CC(O)(C(F)(F)F)C(F)(F)F	> 100 µM (inactive)	> 100 µM (inactive)	> 100 µM (inactive)	–	> 100 µM (inactive)	> 100 µM (inactive)	> 100 µM (inactive)	> 100 µM (inactive)	> 100 µM (inactive)	> 100 µM (inactive)	> 100 µM (inactive)	> 100 µM (inactive)	> 100 µM (inactive)	> 100 µM (inactive)	> 100 µM (inactive)	> 100 µM (inactive)	> 100 µM (inactive)	> 100 µM (inactive)	> 100
